{"source": "paper PMC5874726", "about": "“Comparison Study of Two Differently Clicked ^18F-Folates—Lipophilicity Plays a Key Role” (Pharmaceuticals, 2018)", "key": {"FR-negative OC316 cells": {"tested_on": "FR-negative OC316 cells", "assay": "Internalization studies in FR-negative OC316 cells", "assay_type": "cell-based, human", "details": "blocked KB cells and FR-negative OC316 cells", "procedure": "Two different temperatures (4 °C for receptor binding, 37 °C for receptor binding and internalization) and two different concentrations were assessed. […] Both radiofolates show a concentration as well as temperature depended increase of activity in the FR positive cells. […] This effect is not fully understood, but we presume the high lipophilicity in combination with the increased concentration being responsible for this high non-specific binding. […] Thus, about 90% of ^18F-DBCO-folate remained in solution, which is ideal for such a radiotracer assay set-up (see supporting information for pie chart of activity distribution, Figure S6). For ^18F-Ala-folate the overall receptor-bound and internalized fractions are similar to ^18F-DBCO-folate (see supporting information for pie chart of activity distribution, Figure S7).\nAs folate-receptor positive control, KB cells (derived from human cervical carcinoma; obtained from German Collection of Microorganisms and Cell Cultures), and OC316 cells (derived from human ovarian adenocarcinoma) as negative control were used. For FACS analysis, data of both cell lines see supporting information Figure S5. The cells were cultured in folate deficient RPMI 1640 medium containing 10% FCS, 1% penicillin-streptomycin and HEPES buffer (10 mM, 5 mL) grown at 37 °C in a humidified atmosphere containing 5% CO2. […]"}, "healthy balb/c mice": {"tested_on": "healthy balb/c mice", "assay": "Ex vivo biodistribution in healthy balb/c mice", "details": "Balb/c, mouse, in vivo, 60 min", "text": "(§1) All animal experiments were approved by the local ethical committee (permission no. 23177-07/G15-1-033). Balb/c and balb/c nude (Balb/c AnNRj-Foxn1nu) mice were kept on a folate-deficient rodent diet to reduce their blood level of folate to one found in humans. After 7 days of acclimatization, human KB tumor cells (2.5 x 10^6 cells in PBS) were inoculated in the right shoulder of each balb/c nude mouse. All in vivo treatments and imaging experiments were done under isoflurane anesthesia. Eleven or twelve days after inoculation, animals were intravenously injected with ^18F-DBCO-Folate and ^18F-Ala-Folate (5–8 MBq, 100–200 µL) via a lateral tail vein. […] PET/MRI-studies were performed on a nanoScan PET/MRI (Mediso, Budapest, Hungary). First MRI scans (Material Map for co-registration of the PET scan; 3D; GRE-EXT, FOV; slice thickness: 0.6 mm; TE: 2 ms; TR: 15 ms; flip angle: 25 deg) were acquired and then either a dynamic scan over 60 min starting with injection of the radiotracer or a static scan for 10 min after 50 min p.i. were performed. All mice, which underwent ex vivo biodistribution, were scanned first. Afterwards co-registered PET/MR images were analyzed via PMOD (version 3.6) and Inveon Research Workplace (version 4.2). For ex vivo biodistribution studies mice were euthanized 60 min p.i. and organs of interest were dissected, weighed, and measured in a γ-counter (PerkinElmer 2470 Wizard2, Perkin Elmer, Rodgau, Germany). The incorporated radioactivity was expressed as percentage of injected dose per gram of tissue (% ID/g)."}, "KB-tumor bearing mice": {"tested_on": "KB-tumor bearing mice", "assay": "Ex vivo biodistribution in KB-tumor bearing mice", "text": "as §1"}, "KB tumor-bearing mice": {"tested_on": "KB tumor-bearing mice", "assay": "µPET imaging in KB tumor-bearing mice", "assay_type": "in vivo, mouse", "details": "static scan 50-60 min p.i.", "text": "as §1"}, "[1]": {"assay": "LogD at pH 7.4 via shake-flask method (octanol/PBS)", "assay_type": "physicochemical", "details": "pH 7.4, shake-flask", "procedure": "The lipophilicity was determined by shake flask method in an octanol/PBS mixture. Table 1 gives an overview of logD values for ^18F-Alakyne and ^18F-Ala-folate as well as for ^18F-DBCO and ^18F-DBCO-folate. […] The reduced lipophilicity is expected to be an indicator for less non-specific background signals and a higher renal clearance rate."}, "[2]": {"details": "balb/c nude (Balb/c AnNRj-Foxn1nu), mouse, in vivo, 60 min"}}}
{"compound": "Nc1nc2ncc(CNc3ccc(C(=O)NC(CCC(=O)NCCOCCOCCOCCn4cc(CNC(C[18F])C(=O)O)nn4)C(=O)O)cc3)nc2c(=O)[nH]1", "note": "(stereo not drawn) [^18F-Ala-folate]", "values": [{"measurement": "non-specific binding", "setting": "FR-negative OC316 cells", "result": "lower non-specific binding"}, {"measurement": "uptake Appendix", "setting": "healthy balb/c mice", "result": "0.20 ± 0.11", "unit": "%ID/g tissue"}, {"measurement": "uptake Blood", "setting": "healthy balb/c mice", "result": "0.29 ± 0.29", "unit": "%ID/g tissue"}, {"measurement": "uptake Heart", "setting": "healthy balb/c mice", "result": "0.32 ± 0.21", "unit": "%ID/g tissue"}, {"measurement": "uptake Inguinal lymph nodes", "setting": "healthy balb/c mice", "result": "0.93 ± 0.67", "unit": "%ID/g tissue"}, {"measurement": "uptake Intestines (empty)", "setting": "healthy balb/c mice", "result": "1.67 ± 1.12", "unit": "%ID/g tissue"}, {"measurement": "uptake Left kidney", "setting": "healthy balb/c mice", "result": "19.90 ± 8.63", "unit": "%ID/g tissue"}, {"measurement": "uptake Liver", "setting": "healthy balb/c mice", "result": "1.51 ± 1.26", "unit": "%ID/g tissue"}, {"measurement": "uptake Lung", "setting": "healthy balb/c mice", "result": "0.36 ± 0.16", "unit": "%ID/g tissue"}, {"measurement": "uptake Muscle", "setting": "healthy balb/c mice", "result": "0.26 ± 0.13", "unit": "%ID/g tissue"}, {"measurement": "uptake Pancreas", "setting": "healthy balb/c mice", "result": "0.33 ± 0.20", "unit": "%ID/g tissue"}, {"measurement": "uptake Right kidney", "setting": "healthy balb/c mice", "result": "20.55 ± 9.71", "unit": "%ID/g tissue"}, {"measurement": "uptake Spleen", "setting": "healthy balb/c mice", "result": "0.15 ± 0.09", "unit": "%ID/g tissue"}, {"measurement": "uptake Stomach (empty)", "setting": "healthy balb/c mice", "result": "0.71 ± 0.24", "unit": "%ID/g tissue"}, {"measurement": "tumor/blood ratio", "setting": "KB-tumor bearing mice; 60 min p.i.", "result": 10.11}, {"measurement": "tumor/kidney ratio", "setting": "KB-tumor bearing mice; 60 min p.i.", "result": 0.12}, {"measurement": "tumor/muscle ratio", "setting": "KB-tumor bearing mice; 60 min p.i.", "result": 7.64}, {"measurement": "reduction of activity in the tumor in the blocked group", "setting": "KB-tumor bearing mice; [2]", "result": 85, "unit": "%"}, {"measurement": "tumor uptake relative to ^18F-DBCO-folate", "setting": "KB-tumor bearing mice; [2]", "result": 3, "unit": "times"}, {"measurement": "uptake Appendix", "setting": "KB-tumor bearing mice; [2]", "result": "0.39 ± 0.22", "unit": "%ID/g tissue"}, {"measurement": "uptake Blood", "setting": "KB-tumor bearing mice; [2]", "result": "0.17 ± 0.05", "unit": "%ID/g tissue"}, {"measurement": "uptake Heart", "setting": "KB-tumor bearing mice; [2]", "result": "0.22 ± 0.09", "unit": "%ID/g tissue"}, {"measurement": "uptake Inguinal lymph nodes", "setting": "KB-tumor bearing mice; [2]", "result": "0.57 ± 0.15", "unit": "%ID/g tissue"}, {"measurement": "uptake Intestines (empty)", "setting": "KB-tumor bearing mice; [2]", "result": "3.42 ± 2.18", "unit": "%ID/g tissue"}, {"measurement": "uptake Left kidney", "setting": "KB-tumor bearing mice; [2]", "result": "14.49 ± 3.42", "unit": "%ID/g tissue"}, {"measurement": "uptake Liver", "setting": "KB-tumor bearing mice; [2]", "result": "1.71 ± 1.02", "unit": "%ID/g tissue"}, {"measurement": "uptake Lung", "setting": "KB-tumor bearing mice; [2]", "result": "0.28 ± 0.05", "unit": "%ID/g tissue"}, {"measurement": "uptake Muscle", "setting": "KB-tumor bearing mice; [2]", "result": "0.22 ± 0.02", "unit": "%ID/g tissue"}, {"measurement": "uptake Pancreas", "setting": "KB-tumor bearing mice; [2]", "result": "0.26 ± 0.11", "unit": "%ID/g tissue"}, {"measurement": "uptake Right kidney", "setting": "KB-tumor bearing mice; [2]", "result": "14.27 ± 3.35", "unit": "%ID/g tissue"}, {"measurement": "uptake Spleen", "setting": "KB-tumor bearing mice; [2]", "result": "0.16 ± 0.04", "unit": "%ID/g tissue"}, {"measurement": "uptake Stomach (empty)", "setting": "KB-tumor bearing mice; [2]", "result": "0.95 ± 0.50", "unit": "%ID/g tissue"}, {"measurement": "uptake Tumor", "setting": "KB-tumor bearing mice; [2]", "result": "1.68 ± 0.13", "unit": "%ID/g tissue"}, {"measurement": "tumor/liver ratio", "setting": "KB-tumor bearing mice; liver including gallbladder, 60 min p.i.", "result": 0.98}, {"measurement": "visualization of KB tumors in maximum intensity projection (MIP) PET images", "setting": "KB tumor-bearing mice", "result": "displayed the KB-tumor in the MIP"}]}
{"compound": "C#CCNC(C[18F])C(=O)O", "note": "(stereo not drawn) [^18F-Alakyne]", "values": [{"measurement": "logD7.4 Value", "setting": "[1]", "result": "−1.18 ± 0.03"}]}
